Laboratory results taken from patent US10111874B2, “Combination therapies for treatment of cancer” (Araxes Pharma LLC, priority 2014, dated 2018).

These compounds were tested against T1, KRAS G12C 1-169, his-tagged protein, GDP-loaded (Homo sapiens, UniProt P01116, G12C) (assay: Biochemical assay: covalent binding to KRAS G12C analyzed by mass spectrometry). Conditions: compounds 1-47, measured at 24 h.
T1 construct: KRAS G12C 1-169, his-tagged protein, GDP-loaded
Note: test concentration or dose not given here.

T1 sequence (P01116 1-169 isoform P01116-2 G12C): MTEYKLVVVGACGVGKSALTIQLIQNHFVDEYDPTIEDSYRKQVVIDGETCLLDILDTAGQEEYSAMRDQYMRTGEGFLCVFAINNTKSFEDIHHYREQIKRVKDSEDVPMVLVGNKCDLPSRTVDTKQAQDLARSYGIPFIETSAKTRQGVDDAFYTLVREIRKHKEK

SMILES | Binding %
C=CC(=O)N1CCN(c2ncnc3cc(Cl)c(-c4ccccc4)cc23)CC1 [Compound I-18, 1-(4-(7-chloro-6-phenylquinazolin-4-yl)piperazin-1-yl)prop-2-en-1-one] | ++ (++indicates binding activity greater than 25% and up to 50%)
C=CC(=O)N1CCN(c2ncnc3cc(Cl)c(-c4cccs4)cc23)CC1 [Compound I-21, 1-(4-(7-chloro-6-(thiophen-2-yl)quinazolin-4-yl)piperazin-1-yl)prop-2-en-1-one] | +++ (+++indicates binding activity greater than 50% and up to 75%)
C=CC(=O)N1CCN(c2ncnc3cc(Cl)c(-c4ccc(Cl)cc4O)cc23)CC1 [Compound I-11, 1-(4-(7-chloro-6-(4-chloro-2-hydroxyphenyl)quinoazlin-4-yl)piperazin-1-yl)prop-2-en-1-one] | ++++ (++++indicates binding activity greater than 75%)

Same assay, conditions: compounds 48-246, measured at 2 h

SMILES | Binding %
C=CC(=O)N1CCN(c2c(C#N)cnc3cc(-c4cc(O)ccc4F)c(Cl)cc23)CC1 [Compound I-196, 4-(4-acryloylpiperazin-1-yl)-6-chloro-7-(2-fluoro-5-hydroxyphenyl)quinoline-3-carbonitrile] | ++++ (++++indicates binding activity greater than 75%)
C=CC(=O)N1CCN(c2ncnc3cc(-c4c(F)cccc4OC)c(Cl)cc23)CC1 [Compound I-194, 1-(4-(6-chloro-7-(2-fluoro-6-methoxyphenyl)quinazolin-4-yl)piperazin-1-yl)prop-2-en-1-one] | ++++ (++++indicates binding activity greater than 75%)
C=CC(=O)N1CCN(c2ncnc3cc(-c4ccccc4C#N)c(Cl)cc23)CC1 [Compound I-105, 2-(4-(4-acryloylpiperazin-1-yl)-6-chloroquinazolin-7-yl)benzonitrile] | + (+indicates binding activity from 5% to 25%)
C=CC(=O)N1CC(Nc2ncnc3cc(-c4ccccc4)c(Cl)cc23)C1 [Compound I-96, 1-(3-(6-chloro-7-phenylquinazolin-4-ylamino)azetidin-1-yl)prop-2-en-1-one] | + (+indicates binding activity from 5% to 25%)
C=CC(=O)N1CCN(c2ncnc3cc(-c4ccccc4OC)c(Cl)cc23)CC1 [Compound I-97, 1-(4-(6-chloro-7-(2-methoxyphenyl)quinazolin-4-yl)piperazin-1-yl)prop-2-en-1-one] | ++ (++indicates binding activity greater than 25% and up to 50%)
C=CC(=O)N1CCN(c2ncnc3cc(-c4ccccc4C4(C(N)=O)CC4)c(Cl)cc23)CC1 [Compound I-176, 1-(2-(4-(4-acryloylpiperazin-1-yl)-6-chloroquinazolin-7-yl)phenyl)cyclopropanecarboxamide] | +++ (+++indicates binding activity greater than 50% and up to 75%)
C=CC(=O)N1CCN(c2ncnc3cc(-c4cccc(C(=O)NC5CC5)c4)c(Cl)cc23)CC1 [Compound I-142, 3-(4-(4-acryloylpiperazin-1-yl)-6-chloroquinazolin-7-yl)-N-cyclopropylbenzamide] | + (+indicates binding activity from 5% to 25%)
C=CC(=O)N1CCN(c2ncnc3cc(-c4cccc(Cl)c4)c(Cl)cc23)CC1 [Compound I-73, 1-(4-(6-chloro-7-(3-chlorophenyl)quinazolin-4-yl)piperazin-1-yl)prop-2-en-1-one] | ++ (++indicates binding activity greater than 25% and up to 50%)
C=CC(=O)N1CCN(c2ncnc3cc(-c4cccs4)c(Cl)cc23)CC1 [Compound I-185, 1-(4-(6-chloro-7-(thiophen-2-yl)quinazolin-4-yl)piperazin-1-yl)prop-2-en-1-one] | ++ (++indicates binding activity greater than 25% and up to 50%)
C=CC(=O)N1CCN(c2ncnc3cc(-c4ccccc4COC)c(Cl)cc23)CC1 [Compound I-103, 1-(4-(6-chloro-7-(2-(methoxymethyl)phenyl)quinazolin-4-yl)piperazin-1-yl)prop-2-en-1-one] | ++ (++indicates binding activity greater than 25% and up to 50%)

Same assay, conditions: compounds 247-342, measured at 30 min

SMILES | Binding %
N#C/C(=C\c1ccccn1)C(=O)N1CCN(c2ncnc3c(F)c(-c4c(O)cccc4F)c(Cl)cc23)CC1 [Compound I-284, (E)-2-(4-(6-chloro-8-fluoro-7-(2-fluoro-6-hydroxyphenyl)quinazolin-4-yl)piperazine-1-carbonyl)-3-(pyridin-2-yl)acrylonitrile] | ++++ (++++indicates binding activity greater than 75%)
C=CC(=O)N1CCN(c2cnnc3cc(-c4c(C)ccc5[nH]ncc45)c(C(F)(F)F)cc23)CC1 [Compound 305, 1-(4-(7-(5-methyl-1H-indazol-4-yl)-6-(trifluoromethyl)cinnolin-4-yl)piperazin-1-yl)prop-2-en-1-one] | ++ (++indicates binding activity greater than 25% and up to 50%)
C=CC(=O)N1CCN(c2ncnc3c(F)c(-c4c(C)ccc5[nH]nc(F)c45)c(Cl)cc23)CC1 [Compound 340, 1-(4-(6-chloro-8-fluoro-7-(3-fluoro-5-methyl-1H-indazol-4-yl)quinazolin-4-yl)piperazin-1-yl)prop-2-en-1-one] | ++++ (++++indicates binding activity greater than 75%)
C=CC(=O)N1CCN(c2ncnc3cc(-c4cccc(-c5ccn[nH]5)c4)c(Cl)cc23)CC1 [Compound I-276, 1-(4-(7-(3-(1H-pyrazol-5-yl)phenyl)-6-chloroquinazolin-4-yl)piperazin-1-yl)prop-2-en-1-one] | + (+indicates binding activity from 5% to 25%)
C=CC(=O)N1CCN(c2ncnc3c(O)c(-c4ccc(F)cc4F)c(Cl)cc23)CC1 [Compound 321, 1-(4-(6-chloro-7-(2,4-difluorophenyl)-8-hydroxyquinazolin-4-yl)piperazin-1-yl)prop-2-en-1-one] | + (+indicates binding activity from 5% to 25%)
C=CC(=O)N1CCN(c2ncnc3c(Cl)c(-c4c(OC)ccc5ccccc45)c(Cl)cc23)CC1 [Compound I-286, 1-(4-(6,8-dichloro-7-(2-methoxynaphthalen-1-yl)quinazolin-4-yl)piperazin-1-yl)prop-2-en-1-one] | + (+indicates binding activity from 5% to 25%)

Same assay, conditions: determined at 24 hrs

SMILES | Binding %
C=CC(=O)N1CC(N2CCN(C(=O)CN3CC(=O)Nc4ccccc43)CC2)C1 [II-42, 4-(2-(4-(1-acryloylazetidin-3-yl)piperazin-1-yl)-2-oxoethyl)-3,4-dihydroquinoxalin-2(1H)-one] | + (+indicates binding activity from 5% to 15%)
C=CC(=O)N1CC(N2CCN(C(=O)CNc3cc(O)c(Cl)c(Cl)c3)CC2)C1 [II-27, 1-(3-(4-(2-(3,4-dichloro-5-hydroxyphenyl-amino)acetyl)piperazin-1-yl)azetidin-1-yl)prop-2-en-1-one] | ++ (++indicates binding activity greater than 15% and up to 25%)
C=CC(=O)N1CC(N2CCN(C(=O)CNc3cc(Cl)c(Br)cc3O)CC2)C1 [II-28, 1-(3-(4-(2-(4-bromo-5-chloro-2-hydroxyphenylamino)-cetyl)piperazin-1-yl)azetidin-1-yl)prop-2-en-1-one] | +++ (+++indicates binding activity greater than 25% and up to 50%)
C=CC(=O)N1CCN(C(=O)c2cc(-c3cc(Cl)ccc3Cl)c(Cl)cc2OC)C(CO)C1 (centres unmarked) [III-7, 1-(3-(Hydroxymethyl)-4-(2′,5′,6-trichloro-4-methoxy-[1,1′-biphenyl]-3-carbonyl)piperazin-1-yl)prop-2-en-1-one] | +++ (+++indicates binding activity greater than 20% and up to 30%)
